Results from US8642630B2, “Endogeneous repair factor production accelerators” (Ono Pharmaceutical Co., Ltd., priority 2002, dated 2014).

What was measured:
[1] = tested on: mouse sponge transplantation model; experiment: Angiogenesis test using mouse sponge transplantation model, Example 8; type: in vivo; conditions: 14 days of repeated administration
Method: Under anesthesia, dorsal part of a mouse was incised and a discus urethane sponge (about 5 mm in thickness and 13 mm in diameter) was embedded therein. Administration of the agent was carried out by topically administering it directly into the sponge once a day for a total of 14 times starting on the day of the sponge transplantation model preparation, or on the operation-completed day and 7th day thereafter. On the 15th day after the sponge transplantation, the sponge containing granulation tissue was extracted and observed with the naked eye, and then its wet mass was measured. In addition, this was mixed with distilled water of 4 times larger amount than the wet mass, homogenized and centrifuged, and then the supernatant was subjected to the measurement of the hemoglobin content using Hemoglobin 13-Test Wako (manufactured by Wako Pure Chemical Industries).
• The polylactic acid-glycolic acid copolymer used in Preparation Example 2 was suspended in 0.2 w/v % Tween 80 solution (0.05 ml). In this connection, amount of the polylactic acid-glycolic acid copolymer is identical to the amount contained in Compound 1 MS (200 μg). Compound 1 (20 μg) Group: • Compound 1 (20 μg) was suspended in 0.2 w/v % Tween 80 solution (0.05 ml). Compound 1 (40 μg) Group:
Compound 1 (40 μg) was suspended in 0.2 w/v % Tween 80 solution (0.05 ml).
• Compound 1 (200 μg) was suspended in 0.2 w/v % Tween 80 solution (0.05 ml). Compound 1 MS (200 μg) group: • The microsphere preparation produced in Preparation Example 2 containing […] of Compound 1 was suspended in 0.2 w/v % Tween 80 solution (0.05 ml). Compound 1 MS (400 μg) Group: • The microsphere preparation produced in Preparation Example 2 containing 400 μg of Compound 1 was suspended in 0.2 w/v % Tween 80 solution (0.05 ml). Compound 3 (20 μg) Group: • Compound 3 (20 μg) was suspended in 0.2 w/v % Tween 80 solution (0.05 ml).

[2] = tested on: normal human umbilical cord vein vascular endothelial cells and normal human skin fibroblasts; experiment: Measurement of angiogenesis acceleration action (in vitro), hollow organ formation, Example 9; type: cell-based; conditions: 10 days of culturing, FIG. 5
Method: An angiogenesis kit (manufactured by Kurabo; constituted from normal human umbilical cord vein vascular endothelial cells and normal human skin fibroblasts) was cultured for 3 hours, and then the culture medium (the medium for angiogenesis use attached to the angiogenesis kit was used as the culture medium and cultured at 37° C. under a moist environment of 5% carbon dioxide-95% air, and a carbon dioxide incubator BNA-121D was used as the incubator) was changed and an agent to be tested was added to each well (0.5 ml/well). The medium exchange was carried out also on the 3rd, 6th and 8th days after commencement of the culturing and the fresh agent to be tested was added. The kind and concentration of the agent to be tested were untreated; DMSO: 0.1%; α-CD: 0.0118, 0.118 and 1.18 mg/ml; PGE2-αCD: 1, 10 and 100 nmol/l; Compound 3 (EP2 agonist), Compound 4 (EP4 agonist), EP1 agonist and EP3 agonist: 1, 10 and 100 nmol/l, VEGF: 0.1, 1 and 10 ng/ml; and HGF: 0.1, 1 and 10 ng/ml, and culturing was carried out by using 3 wells for each concentration. Fixation was carried out 10 days after the commencement of culturing, and staining of hollow organ with anti-CD31 antibody was carried out by using a hollow organ staining kit (manufactured by Kurabo). As the evaluation, Chalkley Grid (a grid lens, Kurabo) was mounted on the eyepiece of a microscope, and the hollow organ formation was evaluated by counting intersections of the randomly arrange points of Chalkley Grid with the formed hollow organ (by referring to the evaluation method of J. Pathol., 177, 275-283 (1995)). The counting was carried out at 12 positions per well, and the total was calculated.
In this connection, Compound 3 as an EP2 agonist ((5Z,9β,11α,13E)-17,17-propano-11,16-dihydroxy-9-chloro-20-norprost-5,13-dienoic acid) was dissolved in dimethyl sulfoxide (DMSO) to prepare 10^−4, 10^−5 and 10^−6 mol/l solutions which were then used by diluting 1/1000 time with the culture medium.
Compound 4 as an EP4 agonist ((11α,13E,15α)-9-oxo-11,15-dihydroxy-16-(3-methoxymethylphenyl)-17,18,19,20-tetranor-5-thiaprost-13-enoic acid) was dissolved in dimethyl sulfoxide (DMSO) to prepare 10^−4, 10^−5 and 10^−6 mol/l solutions which were then used by diluting 1/1000 time with the culture medium.
The EP1 agonist ((13E)-(11α,15S,17S)-2,5-ethano-6,9-dioxo-11,15-dihydroxy-17,20-dimethylprost-13-enoic acid; the compound described in Example 1 in the specification of JP-A-11-322709) was dissolved in dimethyl sulfoxide (DMSO) to prepare 10^−4, 10^−5 and 10^−6 mol/l solutions which were then used by diluting 1/1000 time with the culture medium.
The EP3 agonist (11α,15α-dimethoxy-9-oxoprost-5Z,13E-dienoic acid; the compound described in Example 1 in the specification of WO98/34916) was dissolved in dimethyl sulfoxide (DMSO) to prepare 10^−4, 10^−5 and 10^−6 mol/l solutions which were then used by diluting 1/1000 time with the culture medium.
The PGE2-αCD was dissolved in distilled water for injection to prepare 10^−4, 10^−5 and 10^−6 mol/l solutions which were then used by diluting 1/1000 time with the culture medium.
As the VEGF (vascular endothelial growth factor), the 2 μg/ml solution of VEGF contained in the angiogenesis control reagent kit of Kurabo was diluted with the culture medium and used.
As the HGF (human hepatocyte growth factor), the 5 μg/ml solution of HGF purchased from R & D System-Funakoshi was diluted with the culture medium and used.
The counts of hollow organ formation in the untreated wells were compared with those of the wells treated with respective concentrations of test samples by Dunnett's test (two-sided test). The significance level was set to 5%.
(§1) In this connection, the data were shown by average value of 3 wells and standard deviation.

HGF = experiment: Endogenous repair factor releasing action (in vitro), HGF by ELISA, Example 10; type: cell-based, human; conditions: 100 nmol/l; for HGF concentration in culture supernatant: after 72 hours of culturing, average of 3 wells ± SD; for HGF concentration in supernatants, in words: vs untreated, Dunnett's test
Method: (§2) An angiogenesis kit (manufactured by Kurabo; constituted from normal human umbilical cord vein vascular endothelial cells and normal human skin fibroblasts) was cultured for 3 hours, and then the culture medium (the medium for angiogenesis use attached to the angiogenesis kit was used as the culture medium and cultured at 37° C. under a moist environment of 5% carbon dioxide-95% air, and a carbon dioxide incubator BNA-121D was used as the incubator) was changed and an agent to be tested was added to each well (0.5 ml/well). HGF and VEGF concentrations in the culture supernatants were measured 3 days after the commencement of the culturing. Kinds and concentrations of the agent to be tested were untreated; DMSO: 0.1%; PGE1-αCD: 100 nmol/l; PGE2-αCD: 100 nmol/l; and Compound 3 (EP2 agonist) and Compound 4 (EP4 agonist): 100 nmol/l, and the culturing was carried out by using 3 wells for each concentration. The HGF and VEGF concentrations were measured by using an ELISA kit (R % D system-Funakoshi).
(§3) In this connection, Compound 3 as an EP2 agonist ((5Z,9β,11α,13E)-17,17-propano-11,16-dihydroxy-9-chloro-20-norprost-5,13-dienoic acid) was dissolved in dimethyl sulfoxide (DMSO) to prepare a 10^−4 mol/l solution which was then used by diluting 1/1000 time with the culture medium.
(§4) Compound 4 as an EP4 agonist ((11α,13E,15α)-9-oxo-11,15-dihydroxy-16-(3-methoxymethylphenyl)-17,18,19,20-tetranor-5-thiaprost-13-enoic acid) was dissolved in dimethyl sulfoxide (DMSO) to prepare a […] solution which was then used by diluting 1/1000 time with the culture medium.
(§5) The PGE1-αCD and PGE2-αCD were dissolved in distilled water for injection to prepare 10^−4 mol/l solutions which were then used by diluting 1/1000 time with the culture medium.
(§6) HGF and VEGF concentrations in the supernatants of the solvent control group were compared with those of the agent-treated groups by Dunnett's test (two-sided test). The significance level was set to 5%.
as §1

VEGF = experiment: Endogenous repair factor releasing action (in vitro), VEGF by ELISA, Example 10; type: cell-based, human; conditions: 100 nmol/l; for VEGF concentration in culture supernatant: after 72 hours of culturing, average of 3 wells ± SD; for VEGF concentration in supernatants, in words: vs untreated, Dunnett's test
Method: as §2, §3, §4, §5, §6, §1

[3] = 20 μg into the sponge once a day, 15th day
[4] = 10 nmol/l and 100 nmol/l, vs untreated wells, Dunnett's test

SMILES | hollow organ formation (Chalkley Grid count), in words [2, 4] | HGF concentration in culture supernatant (HGF) | HGF concentration in supernatants, in words (HGF) | VEGF concentration in culture supernatant (VEGF) | VEGF concentration in supernatants, in words (VEGF) | hollow organ formation (Chalkley Grid count), in words ([2]; 1, 10 and 100 nmol/l) | also measured
CCC1(C(O)C/C=C/[C@@H]2[C@@H](C/C=C\CCCC(=O)O)[C@H](Cl)C[C@H]2O)CCC1 (stereo partly drawn) [Compound 3, (5Z,9β,11α,13E)-17,17-propano-11,16-dihydroxy-9-chloro-20-norprost-5,13-dienoic acid] | significantly accelerated hollow organ formation | 1865 ± 48 pg/mL | significantly increased HGF and VEGF concentrations | 2762 ± 51 pg/mL | significantly increased HGF and VEGF concentrations |  | Hemoglobin content [1, 3]: 4.588 ± 0.488 mg/g wet tissue; Sponge wet weight [1, 3]: 0.5193 ± 0.0792 g; formation of granulation in the sponge, in words ([1]; 20 μg): formation of granulation was found; hemoglobin concentration in the granulation tissue, in words ([1]; 20 μg, vs polymer group): significant increase in the concentration of hemoglobin
COCc1cccc(C[C@H](O)/C=C/[C@H]2[C@H](O)CC(=O)[C@@H]2CCSCCCC(=O)O)c1 [Compound 4, (11α,13E,15α)-9-oxo-11,15-dihydroxy-16-(3-methoxymethylphenyl)-17,18,19,20-tetranor-5-thiaprost-13-enoic acid] | significantly accelerated hollow organ formation | 379 ± 12 pg/mL | significantly increased HGF and VEGF concentrations | 2936 ± 69 pg/mL | significantly increased HGF and VEGF concentrations |  | 
CCCC[C@H](C)C[C@H](O)/C=C/[C@H]1[C@H](O)CC(=O)[C@@H]1CC(=O)C1CCC(C(=O)O)CC1 (stereo partly drawn) [EP1 agonist, (13E)-(11α,15S,17S)-2,5-ethano-6,9-dioxo-11,15-dihydroxy-17,20-dimethylprost-13-enoic acid, reference compound] |  |  |  |  |  | did not exert influence upon hollow organ formation | 
CCCCC[C@@H](/C=C/[C@H]1[C@H](OC)CC(=O)[C@@H]1C/C=C\CCCC(=O)O)OC [EP3 agonist, 11α,15α-dimethoxy-9-oxoprost-5Z,13E-dienoic acid, reference compound] |  |  |  |  |  | did not exert influence upon hollow organ formation | 
OC[C@H]1O[C@@H]2O[C@H]3[C@H](O)[C@@H](O)[C@@H](O[C@H]4[C@H](O)[C@@H](O)[C@@H](O[C@H]5[C@H](O)[C@@H](O)[C@@H](O[C@H]6[C@H](O)[C@@H](O)[C@@H](O[C@H]7[C@H](O)[C@@H](O)[C@@H](O[C@H]1[C@H](O)[C@H]2O)O[C@@H]7CO)O[C@@H]6CO)O[C@@H]5CO)O[C@@H]4CO)O[C@@H]3CO [α-CD] |  |  |  |  |  |  | hollow organ formation (Chalkley Grid count), in words ([2]; 0.0118, 0.118 and 1.18 mg/ml): did not exert influence upon hollow organ formation
